Measured values: patent US5342604A (The Dow Chemical Company, priority 1992, dated 1994)
Structures can show the parent of a compound that is named as a salt. Where two headings read alike, the source gives them in different places.

Columns and labels:
[1] = In vivo screening of bifunctional chelates: biodistribution, percent injected dose in liver; details: rat, i.v. tail vein, 2 hours
Method: (§2) Also samarium was injected as samarium chloride in unchelated form.
(§3) Sprague-Dawley rats weighing from 150 to 200 g were purchased from Charles River Laboratories. These animals were placed in cages and fed water and food ad libitum. The animals were acclimated for at least five days before use. Prior to injection of complex, the animals were placed under a heat lamp (15 to 30 minutes) to dilate the tail vein. Then, the animal was placed in a restraining cage, the tail cleaned with an alcohol swipe, and the animal injected (50 to 200 μl) via the tail vein. After injection, the animal was placed in another cage for two hours after which time the animal was sacrificed by cervical dislocation. The animal was then dissected, the parts rinsed with deionized H2 O, patted dry, and weighed into a tared counting vial. Whatever size of injection was made, at least three standards of the same material were prepared and counted with the animal parts.

[2] = Percent complex determination, samarium complexes (Sephadex C-25 cation exchange); assay type: physicochemical
Method: (§1) A disposable 10 ml plastic (Biorad) column was filled with 1 to 2 ml of water-swelled Sephadex™ C-25 cation exchange resin. The water was pressure eluted to the top of the resin. Fifteen μl of the complex (or more if counts were low) were added to the top of the resin. This was followed by 2 ml of 4:1 (V:V) isotonic saline:conc. ammonium hydroxide solution as an eluent which was allowed to drip into a counting tube. This was also pressure eluted to the top of the resin. An additional 2 ml of the eluent were added and the column pressure eluted to remove all liquid. The dried resin was then placed in a third counting tube and the three tubes counted on a NaI well counter using a Canberra multichannel analyzer linked to a computer. The percent complex was determined by dividing the number of counts in the two elutions by the total counts in the elutions plus the column, all times 100.
Samarium complexes were formed as described previously for yttrium complexes except that 0.0003M samarium was prepared by dissolution of Sm2 03 (348.7 g mole) in 0.1M hydrochloric acid. […] Percent complex determination was made in the same manner as for the yttrium complex.

[3] = Inertness of samarium complex to pH change; assay type: physicochemical
Method: as §1, with “100. By this method, uncomplexed yttrium was retained on the column.” for “100.”
One portion was treated with 1-2 μl portions of 0.1N hydrochloric acid until the pH was lowered and the other portion was treated with 0.1N sodium hydroxide to bring the pH up. The complexes were allowed to set for 5-10 minutes at each pH change, then they were sampled to determine the percent complexation at that pH by the method described for Examples 16 through 33.
One portion was treated with 1-2 μportions of 1.0N hydrochloric acid until the pH was lowered and the other portion was treated with 0.1N, 1.0N and 50 weight % sodium hydroxide to bring the pH up. The complexes were allowed to set for about 5 minutes at each pH change, then they were sampled to determine the percent complexation at that pH by the method described for Examples 16 through 33.

[4] = rat, in vivo, iv, 120 min
Method: as §2, §3

[5] = Percent complex determination, yttrium complexes (Sephadex C-25 cation exchange); assay type: physicochemical; details: Y
Method: The yttrium and/or samarium complexes of several of the compounds were prepared and percent complexation determined as follows:
Complexes were made by preparing a 0.0003M yttrium solution in water. (YCl3 ·6H2 O, 303.26 g/mole; Y(OAc)3, 12.1% H2 0). Radioactive YCl3 (Oakridge National Laboratories) was added to give the desired number of counts. Ten μl of ligand solution (at 0.03M) were added to 990 μl of the Y solution, giving a ligand-to-metal ratio of 1:1. (Ten times the amount of ligand solution was used for a 10:1 ligand to metal ratio.) The pH was then adjusted to 7.4 using microliter quantities of hydrochloric acid or sodium hydroxide. The solution was then tested for the amount of complexed yttrium using the cation exchange method given below.
as §1, with “100. By this method, uncomplexed yttrium was retained on the column.” for “100.”

[6] = Sm, ligand/metal ratio about 50:1
[7] = Sm, ligand/metal ratio not stated

## 2-[(2-[(2-[(2-{[BIS(CARBOXYMETHYL)]AMINO}ETHYL) (CARBOXYMETHYL)AMINO]ETHYL) (CARBOXYMETHYL)AMINO]ETHYL)(CARBOXYMETHYL)AMINO]-2-[5-ACETAMIDO2-(CARBOXYMETHYLOXY) PHENYL]ETHANOIC ACID AND 2[(2-[(2-{[BIS(CARBOXYMETHYL)]AMINO}ETHYL)(CARBOXYMETHYL) AMINO]ETHYL)(2-{[BIS(CARBOXYMETHYL)]AMINO}ETHYL)AMINO]-2-[5-ACETAMIDO-2-(CARBOXYMETHYLOXY) PHENYL]ETHANOIC ACID [Example 9]
[1]; Sm, ligand/metal 10:1
  % Injected Dose in Liver: 2.8%
[2]; Sm, ligand/metal 10:1
  % Complex: > 99%

## 2-[BIS(2-{[(BIS(CARBOXYMETHYL)] AMINO}ETHYL)AMINO]-2-[5-AMINO-2-(CARBOXYMETHYLOXY) PHENYL]ETHANOIC ACID AND 2-[{2-[(2{[BIS(CARBOXYMETHYL)]AMINO}ETHYL) (CARBOXYMETHYL)AMINO]ETHYL}(CARBOXYMETHYL)AMINO]-2-[5-AMINO-2-(CARBOXYMETHYLOXY)PHENYL]ETHANOIC ACID, SAMARIUM COMPLEX [XXII]
[3]; Table V, pH 1, 5-10 minutes
  % Complexed: 98%
[3]; Table V, pH 2, 5-10 minutes
  % Complexed: 100%
[3]; Table V, pH 3, 5-10 minutes
  % Complexed: 100%
[3]; Table V, pH 4, 5-10 minutes
  % Complexed: 100%
[3]; Table V, pH 5, 5-10 minutes
  % Complexed: 100%
[3]; Table V, pH 7, 5-10 minutes
  % Complexed: 100%
[3]; Table V, pH 9, 5-10 minutes
  % Complexed: 100%
[3]; Table V, pH 11, 5-10 minutes
  % Complexed: 100%
[3]; Table V, pH 13, 5-10 minutes
  % Complexed: 100%
[2]; about pH 7.5, Example XXII
  percent Sm that was complexed: 100%

## 2-[BIS(2-{[(BIS(CARBOXYMETHYL)]AMINO}ETHYL) AMINO]-2-[5-AMINO-2-(CARBOXYMETHYLOXY)PHENYL]ETHANOIC ACID AND 2-[{2-[(2-{[BIS(CARBOXYMETHYL)]AMINO}ETHYL)(CARBOXYMETHYL)AMINO]ETHYL} (CARBOXYMETHYL)AMINO]-2-[5-AMINO-2-(CARBOXYMETHYLOXY)PHENYL]ETHANOIC ACID [Example 7]
[2]; [6]
  % Complex: 96%

## 2-[bis(2-{[(bis(carboxymethyl)]amino}ethyl) amino]-2-[5-acetamido-2-(carboxymethyloxy)phenyl]ethanoic acid and 2-[{2-[(2-{[bis(carboxymethyl)]amino}ethyl)(carboxymethyl)amino]ethyl} (carboxymethyl)amino]-2-[5-acetamido-2-(carboxymethyloxy)phenyl]ethanoic acid [Example 6]
[1]; Sm, ligand/metal 10:1
  % Injected Dose in Liver: 0.38%
[2]; Sm, ligand/metal 10:1
  % Complex: > 99%

## 2-[{2-[(2{[B IS(CARBOXYMETHYL)]AMINO}ETHYL) (CARBOXYMETHYL) AMINO]ETHYL} (CARBOXYMETHYL) AMINO]-2-[5-AMINO-2-(CARBOXYMETHYLOXY)PHENYL]ETHANOIC ACID, SAMARIUM COMPLEX [XXIII]
[3]; Table VI, pH 1, about 5 minutes
  % Complexed: 91%
[3]; Table VI, pH 2, about 5 minutes
  % Complexed: 88%
[3]; Table VI, pH 3, about 5 minutes
  % Complexed: 92%
[3]; Table VI, pH 5, about 5 minutes
  % Complexed: 96%
[3]; Table VI, pH 7, about 5 minutes
  % Complexed: 96%
[3]; Table VI, pH 9, about 5 minutes
  % Complexed: 99%
[3]; Table VI, pH 12, about 5 minutes
  % Complexed: 98%
[3]; Table VI, pH 13, about 5 minutes
  % Complexed: 99%
[2]; Sm, pH about 7, Example XXIII
  percent complexation: 96%

## Nc1ccc(OCC(=O)O)c(C(C(=O)O)N(CCN(CC(=O)O)CC(=O)O)CC(=O)O)c1 (centres unmarked) [Example 3, 2-[(2-{[BIS(CARBOXYMETHYL)]AMINO}ETHYL) (CARBOXYMETHYL)AMINO]-2-[5-AMINO-2-(CARBOXYMETHYLOXY)PHENYL]ETHANOIC ACID, PENTA SODIUM SALT]
[4]
  % Injected Dose in Liver: 0.22%
[5]; ligand/metal 10:1
  % Complex: > 99%

## CC(=O)Nc1ccc(O)c(C(C(=O)O)N(CC#N)CCN(CC(=O)O)CC(=O)O)c1 (centres unmarked) [Example 4, 2-[(2-{[bis(carboxymethyl)]amino}ethyl) (cyanomethyl)amino]-2-(5-acetamido-2-hydroxyphenyl)ethanoic acid]
[4]
  % Injected Dose in Liver: 1.4%
[5]; ligand/metal 10:1
  % Complex: > 99%

## Nc1ccc(O)c(C(C(=O)O)N(CCN(CC(=O)O)CC(=O)O)CC(=O)O)c1 (centres unmarked) [Example 5, 2-[(2-{[BIS(CARBOXYMETHYL)]-AMINO}ETHYL) (CARBOXYMETHYL)AMINO]-2-(5-AMINO-2HYDROXYPHENYL)ETHANOIC ACID]
[4]
  % Injected Dose in Liver: 0.38%
[5]; ligand/metal 10:1
  % Complex: 99%

## Nc1ccc(OCC(=O)O)c(C(C(=O)O)N(CCN(CCN(CC(=O)O)CC(=O)O)CC(=O)O)CC(=O)O)c1 (centres unmarked) [Example 8, 2-[{2-[(2-{[BIS(CARBOXYMETHYL)]-AMINO}ETHYL) (CARBOXYMETHYL) AMINO]ETHYL}(CARBOXYMETHYL)AMINO ]-2-[5-AMINO-2- CARBOXYMETHYLOXY)PHENYL]ETHANOIC ACID]
[2]; [6]
  % Complex: > 99%

## CC(=O)Nc1cc(CN(CCN(CC(=O)O)CC(=O)O)CC(=O)O)c(O)c(CN(CCN(CC(=O)O)CC(=O)O)CC(=O)O)c1 [Example 11]
[5]; ligand/metal 10:1
  % Complex: 99%
[5]; ligand/metal ratio about 1:1
  % Complex: 98%

## CC(=O)Nc1cc(CN(CCN(CC(=O)O)CC(=O)O)CC(=O)O)c(O)c(CN(CC(=O)O)CC(=O)O)c1 [Example 15, 2-({[BIS(CARBOXYMETHYL)]AMINO}METHYL)-6-{[({[BIS(CARBOXYMETHYL)]AMINO}ETHYL)((CARBOXYMETHYL)AMINO]METHYL}-4-(ACETAMIDO)PHENOL]
[4]
  % Injected Dose in Liver: 0.37%
[5]; ligand/metal 10:1
  % Complex: 99%

## CC(=O)Nc1ccc(O)c(CN(CCN(CC(=O)O)Cc2cc(NC(C)=O)ccc2O)CC(=O)O)c1 [Example U, N,N'-DI(2-HYDROXY, 5-ACETAMIDOBENZYL)ETHYLENEDIAMINE-N,N'-DIACETIC ACID, reference compound]
[1]; [7]
  % Injected Dose in Liver: 12%

## Nc1ccc(O)c(C(NCCNC(C(=O)O)c2cc(N)ccc2O)C(=O)O)c1 (centres unmarked) [Example X, […][(2-HYDROXY-5AMINOPHENYL)ACETIC ACID], reference compound]
[1]; [7]
  % Injected Dose in Liver: 24%

## [Cl][Sm]([Cl])[Cl] [SmCl3, samarium chloride, reference compound]
[1]; Sm injected as samarium chloride in unchelated form
  % Injected Dose in Liver: 39%
